Assay results from article PMC8769378, “Underlining the Importance of Peripheral Protic Functional Groups to Enhance the Proton Exchange of Gd-Based MRI Contrast Agents” (Inorganic Chemistry, 2021).

Experiments:
[1] = Stability and protonation constants of Zn^II complexes by pH potentiometry; assay type: physicochemical
Text: The metal complexes of biomedical interest must show a high in vivo stability, which includes high thermodynamic stability and kinetic inertness to allow targeting applications and to avoid possible toxic effects derived by metal ion and ligand release via transmetalation or transchelation reactions.[2],[3],[13] The protonation constants of L2 as well as the stability and the protonation constants of GdL2 and those of the most important endogenous divalent metal complexes (Ca^II-, Zn^II-, and Cu^II) were determined by pH potentiometry (Table 1 and Table S1). In the case of GdL1, we were interested in determining the dissociation constant of the hydroxyl group that was measured also by pH potentiometry (Table 1). Experimental details and the definitions and equations used for the evaluation of the equilibrium and kinetic data are summarized in the SI.
(§1) The stability and protonation constants of Ca^2+, Zn^2+, and Cu^2+ complexes formed with the L1 ligand were determined by pH potentiometric titration. The metal-to-ligand concentration ratio was 1:1 (the concentration of the ligand was generally 0.002 M). The protonation constants of the GdL1 and GdL2 complexes were determined using pH potentiometry by titrating the preprepared complexes from pH = 3.0 to pH = 12 for GdL2 and from pH = 4.0 to pH = 12 for GdL1 with 0.2 M NaOH. The stability constants of GdL2 were determined by the “out-of-cell” technique because of the slow formation reaction. The pH range of the complexation equilibria and the time needed to reach the equilibria were determined by relaxometry for the formation of GdL2. […] For the calculation of the stability constants of GdL2, besides the protonation constants of ligands, the stability constants of the diprotonated *Gd(H2L2) out-of-cage complexes (considered as intermediates) were also used as fixed values, which were calculated from the pH potentiometric titration curve of the Gd^3+–L2 system obtained in the pH range 1.7–4.0.
For the pH measurements and titrations, the Metrohm 888 Titrando titration workstation Metrohm-6.0234.110 combined electrode was used. […] For the calculation of [H^+] from the measured pH values, the method proposed by Irving et al. was used as follows.[34] […] The differences (A) between the measured (pHread) and calculated (−log[H^+]) pH values were used to obtain the equilibrium H^+ concentration from the pH values measured in the titration experiments (A = 0.024). […]
The stability and protonation constants of CaII-, ZnII-, CuII- and GdIII-complexes of L2, expressed by Eqs. (S2) and (S3), were determined by pH-potentiometry and spectrophotometry at 25 °C in 0.15 M […]
where i=0, 1, 2, 3. […] The stability constant of GdL2 was calculated from the equilibrium data obtained by the “out-of-cell” technique due to the slow complexation reaction. […]

[2] = Stability constants of Gd^III complexes (out-of-cell pH potentiometry); assay type: physicochemical
Procedure: as §1
For the pH measurements and titrations, the Metrohm 888 Titrando titration workstation Metrohm-6.0234.110 combined electrode was used. […] For the calculation of [H^+] from the measured pH values, the method proposed by Irving et al. was used as follows.[34] […]

O=C(O)CN1CCN(CC(=O)O)CCN(C[C@@H](O)C(=O)O)CCN(CC(=O)O)CC1 [L2, (R)2,2′,2″-(10-(2-Carboxy-2-hydroxyethyl)-1,4,7,10-tetraazacyclododecane-1,4,7-triyl) Triacetic Acid]
ZnH2L (log K) ([1]; 0.15 M NaCl, 25 °C): 3.32 (3) | ZnH3L (log K) ([1]; 0.15 M NaCl, 25 °C): 2.29 (5) | ZnHL (log K, protonation constant of the complex) ([1]; 0.15 M NaCl, 25 °C): 3.86 (5) | ZnL (log K, stability constant) ([1]; I = 0.15 M NaCl, 298 K): 17.81 (6) | GdL (log KGdL, stability constant) ([2]; I = 0.15 M NaCl, 298 K): 19.26 (3) | GdH2L (log K, stability constant of the protonated *Gd(H2L) out-of-cage intermediate) ([2]; KGd(H2L)=[Gd(H2L)]/[Gd3+][H2L], 0.15 M NaCl, 25 °C): 6.73 (3)
